Experimental data as given in US20070141723A1, “Immunohistochemistry staining controls” (priority 2005, published 2007).
*: point of attachment. FITC = O=C1OC2(c3ccc(O)cc3Oc3cc(O)ccc32)c2ccc(NC(=S)*)cc21

How the values were obtained:
1D5 monoclonal antibody = experiment: Peptide ELISA of synthetic ER peptides with 1D5; type: binding, mouse; settings: compared among ER peptides 3, 4 and 6
Source text: Three synthetic peptides (designated as ER peptide 3, ER peptide 4, and ER peptide 6), that are representative of above consensus phage sequence, were synthesized (by SynPep Labs, Dublin, Calif. and Bachem Labs, King of Prussia, Pa.) and tested for specificity/affinity to 1D5 monoclonal antibody.

ER peptide mimic = experiment: immunostaining of ER peptide mimic spots on matrix, semi-quantitative colour score

Substance	peptide ELISA signal (1D5 monoclonal antibody)	Staining intensity (1-4+) (ER peptide mimic)
Ac-DFQCPYVECVVNAPGGK (FITC) GK-CONH2 (Ac-DFQCPYVECVVNAPGGK(FITC)GK-NH2; cysteine pairing not given here) [ER peptide 3]	highest signal	–
anti-human estrogen receptor mouse monoclonal antibody 1D5	–	4 1-4+ scale
